# What was measured:
# C57BL/6J mice [1] = test: Hot water tail immersion test, compound alone (intrinsic antinociception); format: in vivo; settings: for effect on tail flick latency vs vehicle / mean latency increase: i.p. 30 min prior to test; for effect on tail flick latency vs vehicle: n = 8 per group; for dose at which significant increase in latency was achieved / dose at which significant latency increases were achieved: i.p.; for dose at which significant latency increases were achieved: lowest significant dose
# Text: After evaluating EU93-108 in vitro, we next evaluated a panel of GluN2B inhibitors for their ability to produce an antinociceptive effect using a classical model of pain perception, determination of tail flick latency for mice when their tails are placed in hot water (Figures 4 and 5). The hot water tail immersion test is a well-validated method of assessing reflexive (i.e., spinal) pain-like response in rodents.[80]−[83] We interpret a drug-induced increase in tail flick latency as analgesia.
# The inhibitors were injected i.p. 30 min prior to a hot water tail immersion test. Four treatment groups and one control group were used (n = 8 per group) where the control group received vehicle (10% DMSO, 20% PEG, 2% DMA in water) and groups 1 through 4 were randomly assigned one dose of the appropriate compound.
# All animal studies performed at Emory have been approved by the Institutional Animal Care and Use Committee at Emory University. Male and female C57BL/6J mice weighing between 20 and 30 g were housed five per cage and given ad libitum access to food and water. The mice were 8–10 weeks of age at the time of experimentation. Animal holding rooms operated on a 12 h dark/light cycle with the dark cycle from 7:00 pm to 7:00 am. Mice were allowed to acclimate in cages for one week after arrival. The mice were handled regularly and habituated to scruffing and cloth restraint for 3–5 days prior to experimentation.
# Mouse weights were recorded on the day of each experiment. Mice were given the appropriate treatment(s) 30 min prior to testing. All injection volumes were 10 mL/kg (e.g., 350 μL for a 35 g mouse). For the tail immersion experiments, each mouse was restrained with a Wypall cloth, leaving the tail exposed. The distal two-thirds of the tail was lowered into a sous vide water bath set to 48 °C, and a stopwatch with a resolution of 0.01 s was used to record the time elapsed between immersion and tail flick. Three recordings were taken for each mouse, and each data point is expressed as the mean of the three recordings. A cut-off time of 25 s was implemented to prevent tissue damage or scarring. For each experiment, the identities of the doses were coded by an independent researcher to ensure blinding. The identities were not decoded until the data were analyzed.
# (§1) Prism 9.3.1 software (GraphPad, San Diego, CA) was used for all data analysis and visualization. Data for intrinsic antinociception was analyzed using one-way ANOVA and Dunnett’s post hoc test for multiple comparisons where each group was compared to vehicle. Data for acute morphine potentiation experiments were analyzed using one-way ANOVA and Tukey’s post hoc test for multiple comparisons was also used, where each group mean was compared to the mean of every other group. Data for tolerance experiments were analyzed using repeated measures two-way ANOVA and Bonferroni post hoc analysis. Data are presented as mean ± SEM and p < 0.05 constitutes significance.
# C57BL/6J mice [2] = test: Preestablished morphine tolerance (tolerant mice, tail immersion test); format: in vivo; settings: co-administered with morphine; males 10 mg/kg, females 20 mg/kg i.p.
# Text: We next wanted to assess EU93-108 for effects on other facets of tolerance. Specifically, we were interested in whether EU93-108 could increase tail flick latency in mice that were already tolerant to morphine (i.e., preestablished tolerance). To assess the effect of EU93-108 on preestablished tolerance, five groups were used (n = 8 per group): vehicle/saline, vehicle/morphine, ifenprodil/morphine, EU93-108/saline, and EU93-108/morphine. All groups except for the vehicle/saline control group were administered morphine three times per day (according to the stair stepping protocol outlined in Figure 11) at gradually increasing doses from 25 to 40 mg/kg three times a day at 3–4 h intervals for three consecutive days until tolerance was observed on day 4 (Figure 12, black circles).
# Figure 11 Dosing regimen to assess effects of EU93-108 on tolerant mice. TIT = tail immersion test. All mice received morphine or saline three times a day according to the protocol in Figure 9. Doses of morphine are shown above the arrows, in mg/kg. Once tolerance was established on day 4, the mice were randomly assigned to receive vehicle, EU93-108, or ifenprodil once a day for two consecutive days. […]
# Mouse weights were recorded on the day of each experiment. […] Three recordings were taken for each mouse, and each data point is expressed as the mean of the three recordings. […] The identities were not decoded until the data were analyzed.
# as §1, with “Data are presented as mean ± SEM and p < 0.05 constitutes significance.” left out
SMILES,effect on tail flick latency vs vehicle (C57BL/6J mice [1]; female mice),effect on tail flick latency vs vehicle (C57BL/6J mice [1]; male mice),dose at which significant increase in latency was achieved (C57BL/6J mice [1]; female mice),mean latency increase (C57BL/6J mice [1]; male mice),dose at which significant latency increases were achieved (C57BL/6J mice [1]; male mice),"ED50 (C57BL/6J mice [1]; Mus musculus, sc, 0.5 h, read-out: ED50 (tail flick latency), morphine dose-response curve)","tail flick latency in morphine-tolerant mice, day 5 vs day 4 (C57BL/6J mice [2])"
"C[C@H](CN1CCC(Cc2ccccc2)CC1)[C@H](O)c1ccc(O)cc1 [Ro25-6981, reference compound]",did not produce any significant increases in latency at the doses tested,did not display significant increases in latency at the doses tested,,,,,
CS(=O)(=O)Nc1ccc(OC[C@@H](O)CNCCc2ccc(Cl)c(Cl)c2)cc1 [EU93-4],significant increases in latency at the highest doses tested,significant increases in tail flick latency at 50 mg/kg,50 mg/kg,10 s,50 mg/kg,,
CN1CC[C@]23c4c5ccc(O)c4O[C@H]2[C@@H](O)C=C[C@H]3[C@H]1C5 [Morphine],,,,,,5.15 mg/kg,
CCCCN(CCc1ccc(Cl)c(Cl)c1)C[C@H](O)COc1ccc(NS(C)(=O)=O)cc1 [EU93-31],significant increases in latency at the highest doses tested,significant increases in latency at the two highest doses tested (50 and 100 mg/kg),100 mg/kg,10 s,50 mg/kg,,
"CC(C(O)c1ccc(O)cc1)N1CCC(Cc2ccccc2)CC1 (stereo not shown) [ifenprodil, reference compound]",did not produce any significant increases in latency at the doses tested,did not display significant increases in latency at the doses tested,,,,,continued to decrease on day 5

# From publication PMC9983021, “Novel GluN2B-Selective NMDA Receptor Negative Allosteric Modulator Possesses Intrinsic Analgesic Properties and Enhances Analgesia of Morphine in a Rodent Tail Flick Pain Model” (ACS Chemical Neuroscience, 2023)
